The conditions of data set [1]: after intravenous infusion; cited from earlier work.
Data set [2] in a line: Iron chelation activity (FeSO4/ferrozine, absorbance at 562 nm). The note with it: 100, 200 and 400 mM pure triethyl orthoacetate (Fig. 7). The format is biochemical.
Method: Negative controls and methanolicmicroalgae extracts (400 µl) were pipetted into 24 well plate, then 100 µl of 0.25mM FeSO4 solution (dissolved in methanol) was added. For the reaction initiation, 100 µl 5mM ferrozine dissolved in methanol was added. Solution was homogenized by pipetting and incubated for 10 minutes at room temperature. After incubation, it was analysed by using spectrophotometric measurement at 562nm wavelength. In vitro experiments with pure triethyl orthoacetate compound was also conducted with the concentrations of 100, 200 and 400 mM respectively. Same experimental protocol was used for pure triethyl orthoacetate as described in detail above for Spirulina platensis extract.

SMILES strings stand for the structures.

The values below come from patent publication EP3295938B1, “USE OF TRIETHYL ORTHOACETATE IN THE TREATMENT OF METAL OVERLOAD DISEASES” (ÜSKÜDAR ÜNIVERSITESI, priority 2016, dated 2018).

Consider `CC(=O)N(O)CCCCCNC(=O)CCC(=O)N(O)CCCCCNC(=O)CCC(=O)N(O)CCCCCN` [deferoxamine], for which the vascular half-life in data set [1] is 5 to 10 min.
With `CCOC(C)(OCC)OCC` [triethyl orthoacetate, Triethyl orthoacetate], the “in vitro iron chelating activity” value in data set [2] is listed as greater than 70%.
